In brackets after ≈: the same amount, converted by molar mass. Activity calls are given as the source filed them. The rule behind the calls is not given here.
Columns and labels:
[1] = test system: Candida albicans; experiment: Antifungal activity against FLC-resistant Candida albicans 953 assessed as fungal growth inhibition incubated for 48 hrs by broth microdilution method; assay type: functional
[2] = test system: Candida albicans; experiment: Antifungal activity against FLC-resistant Candida albicans 710452 assessed as fungal growth inhibition incubated for 48 hrs by broth microdilution method; assay type: functional
[3] = test system: Candida albicans; experiment: Antifungal activity against FLC-resistant Candida albicans 385 assessed as fungal growth inhibition incubated for 48 hrs by broth microdilution method; assay type: functional
[4] = test system: Candida albicans; experiment: Inhibition of mature biofilm formation of Candida albicans SC5314 upto 16 ug/ml incubated for 24 hrs by XTT assay; assay type: functional, organism-based; conditions: dose <= 16.0 µg/ml
[5] = test system: Candida albicans; experiment: Antifungal activity against FLC-resistant Candida albicans 304103 assessed as fungal growth inhibition incubated for 48 hrs by broth microdilution method; assay type: functional
[6] = test system: Pichia kudriavzevii; experiment: Antifungal activity against Candida krusei 474 assessed as fungal growth inhibition incubated for 48 hrs by broth microdilution method; assay type: functional
[7] = test system: Candida albicans; experiment: Antifungal activity against Candida albicans SC5314 infected in C57BL/6 mouse assessed as mean fungal burden at 2 mg/kg, ip measured after 46 hrs by plate count method (reference value: 6.890 log10CFU/ml); assay type: functional
[8] = test system: Candida albicans; experiment: Antifungal activity against FLC-resistant Candida albicans 5740 assessed as fungal growth inhibition incubated for 48 hrs by broth microdilution method; assay type: functional
[9] = test system: Candida albicans; experiment: Antifungal activity against FLC-resistant Candida albicans 8 assessed as fungal growth inhibition incubated for 48 hrs by broth microdilution method; assay type: functional
[10] = test system: Candida albicans; experiment: Antifungal activity against Candida albicans SC5314 assessed as fungal growth inhibition incubated for 48 hrs in presence of K+ by broth microdilution method; assay type: functional, organism-based
[11] = test system: Candida albicans; experiment: Antifungal activity against FLC-resistant Candida albicans 305 assessed as fungal growth inhibition incubated for 48 hrs by broth microdilution method; assay type: functional
[12] = test system: Candida albicans; experiment: Antifungal activity against FLC-resistant Candida albicans 11 assessed as fungal growth inhibition incubated for 48 hrs by broth microdilution method; assay type: functional
[13] = test system: Candida albicans; experiment: Antifungal activity against FLC-resistant Candida albicans 819 assessed as fungal growth inhibition incubated for 48 hrs by broth microdilution method; assay type: functional
[14] = test system: Candida albicans; experiment: Antifungal activity against FLC-resistant Candida albicans 646 assessed as fungal growth inhibition incubated for 48 hrs by broth microdilution method; assay type: functional
[15] = test system: Candida albicans; experiment: Antifungal activity against FLC-resistant Candida albicans 395 assessed as fungal growth inhibition incubated for 48 hrs by broth microdilution method; assay type: functional
[16] = test system: Candida albicans; experiment: Antifungal activity against FLC-resistant Candida albicans 100 assessed as fungal growth inhibition incubated for 48 hrs by broth microdilution method; assay type: functional
[17] = test system: Candida albicans; experiment: Antifungal activity against FLC-resistant Candida albicans 249 assessed as fungal growth inhibition incubated for 48 hrs by broth microdilution method; assay type: functional
[18] = Toxicity in C57BL/6 mouse infected with Candida albicans SC5314 assessed as mean survival time at 2 mg/kg, ip (reference value: 5 day); assay type: organism-based; conditions: in vivo, 120 h
[19] = test system: [Candida] auris; experiment: Antifungal activity against Candida auris 887 assessed as fungal growth inhibition incubated for 48 hrs by broth microdilution method; assay type: functional; conditions: Candidozyma auris
[20] = test system: Candida albicans; experiment: Antifungal activity against FLC-resistant Candida albicans 17 assessed as fungal growth inhibition incubated for 48 hrs by broth microdilution method; assay type: functional
[21] = test system: Candida albicans; experiment: Antifungal activity against FLC-resistant Candida albicans 512681 assessed as fungal growth inhibition incubated for 48 hrs by broth microdilution method; assay type: functional
[22] = test system: Candida albicans; experiment: Antifungal activity against FLC-resistant Candida albicans 710554 assessed as fungal growth inhibition incubated for 48 hrs by broth microdilution method; assay type: functional
[23] = test system: Candida albicans; experiment: Antifungal activity against FLC-resistant Candida albicans 379 assessed as fungal growth inhibition incubated for 48 hrs by broth microdilution method; assay type: functional
[24] = test system: Candida albicans; experiment: Antifungal activity against FLC-resistant Candida albicans 540 assessed as fungal growth inhibition incubated for 48 hrs by broth microdilution method; assay type: functional
[25] = test system: Candida albicans; experiment: Antifungal activity against FLC-resistant Candida albicans 538 assessed as fungal growth inhibition incubated for 48 hrs by broth microdilution method; assay type: functional
[26] = Cytotoxicity against HUVEC cells assessed as cell growth inhibition incubated for 24 hrs by CCK8 assay; assay type: toxicity, cell-based; conditions: human
[27] = test system: Candida albicans; experiment: Antifungal activity against FLC-resistant Candida albicans 64548 assessed as fungal growth inhibition incubated for 48 hrs by broth microdilution method; assay type: functional
[28] = test system: Candida albicans; experiment: Antifungal activity against Candida albicans SC5314 assessed as fungal growth inhibition incubated for 48 hrs in presence of Ca2+ by broth microdilution method; assay type: functional, organism-based
[29] = test system: Candida albicans; experiment: Antifungal activity against FLC-resistant Candida albicans 710513 assessed as fungal growth inhibition incubated for 48 hrs by broth microdilution method; assay type: functional
[30] = test system: Candida albicans; experiment: Antifungal activity against FLC-resistant Candida albicans 512644 assessed as fungal growth inhibition incubated for 48 hrs by broth microdilution method; assay type: functional
[31] = test system: Candida albicans; experiment: Antifungal activity against FLC-resistant Candida albicans 710419 assessed as fungal growth inhibition incubated for 48 hrs by broth microdilution method; assay type: functional
[32] = Antifungal activity against Cryptococcus gattii SCZ20024 assessed as fungal growth inhibition incubated for 48 hrs by broth microdilution method; assay type: functional, Cryptococcus gattii VGI
[33] = test system: Candida parapsilosis; experiment: Antifungal activity against Candida parapsilosis 107 assessed as fungal growth inhibition incubated for 48 hrs by broth microdilution method; assay type: functional; conditions: Lodderomyces parapsilosis
[34] = test system: Candida albicans; experiment: Antifungal activity against FLC-resistant Candida albicans 605141 assessed as fungal growth inhibition incubated for 48 hrs by broth microdilution method; assay type: functional
[35] = test system: Candida albicans; experiment: Antifungal activity against FLC-resistant Candida albicans 241 assessed as fungal growth inhibition incubated for 48 hrs by broth microdilution method; assay type: functional
[36] = Toxicity in C57BL/6 mouse infected with Candida albicans SC5314 assessed as animal survival at 2 mg/kg, ip measured after 20 days in presence of FLC relative to control; assay type: organism-based; conditions: in vivo, 480 h, time 20 day
[37] = test system: Candida albicans; experiment: Antifungal activity against Candida albicans 22 assessed as fungal growth inhibition incubated for 48 hrs by broth microdilution method; assay type: functional
[38] = test system: Candida albicans; experiment: Antifungal activity against FLC-resistant Candida albicans 710506 assessed as fungal growth inhibition incubated for 48 hrs by broth microdilution method; assay type: functional
[39] = test system: Candida albicans; experiment: Antifungal activity against Candida albicans SC5314 assessed as fungal growth inhibition incubated for 48 hrs in presence of Zn2+ by broth microdilution method; assay type: functional, organism-based
[40] = test system: Candida albicans; experiment: Synergistic antifungal activity against FLC-resistant Candida albicans 241 assessed as MIC of FLC incubated for 48 hrs by broth microdilution method; assay type: functional
[41] = test system: Candida albicans; experiment: Antifungal activity against FLC-resistant Candida albicans 1221 assessed as fungal growth inhibition incubated for 48 hrs by broth microdilution method; assay type: functional
[42] = test system: Candida albicans; experiment: Antifungal activity against FLC-resistant Candida albicans 12 assessed as fungal growth inhibition incubated for 48 hrs by broth microdilution method; assay type: functional
[43] = test system: Candida albicans; experiment: Antifungal activity against Candida albicans SC5314 assessed as fungal growth inhibition incubated for 48 hrs in presence of Mg2+ by broth microdilution method; assay type: functional, organism-based
[44] = test system: Candida albicans; experiment: Antifungal activity against FLC-resistant Candida albicans 14 assessed as fungal growth inhibition incubated for 48 hrs by broth microdilution method; assay type: functional
[45] = test system: Candida parapsilosis; experiment: Antifungal activity against Candida parapsilosis ATCC22019 assessed as fungal growth inhibition incubated for 48 hrs by broth microdilution method; assay type: functional; conditions: Lodderomyces parapsilosis
[46] = test system: Candida albicans; experiment: Antifungal activity against FLC-resistant Candida albicans 10 assessed as fungal growth inhibition incubated for 48 hrs by broth microdilution method; assay type: functional

Compound: CCN(CC)c1ccc(C(NC(=O)C(C)C)c2ccc3cccnc3c2O)cc1 (stereo unspecified)
- MIC [1]: 0.5 µg/mL (≈ 1.28 µM)
- MIC [2]: 0.125 µg/mL (≈ 0.319 µM)
- MIC [3]: 0.125 µg/mL (≈ 0.319 µM)
- inhibition [4]: inactive
- MIC [5]: 0.25 µg/mL (≈ 0.639 µM)
- MIC [6]: 0.125 µg/mL (≈ 0.319 µM)
- Activity [7]: 6.283 log10CFU/g
- MIC [8]: 0.063 µg/mL (≈ 0.161 µM)
- MIC [9]: 0.125 µg/mL (≈ 0.319 µM)
- growth inhibition (GI) [10]: Active
- MIC [11]: 0.5 µg/mL (≈ 1.28 µM)
- MIC [12]: 0.25 µg/mL (≈ 0.639 µM)
- MIC [13]: 0.125 µg/mL (≈ 0.319 µM)
- MIC [14]: 0.125 µg/mL (≈ 0.319 µM)
- MIC [15]: 0.125 µg/mL (≈ 0.319 µM)
- MIC [16]: 0.125 µg/mL (≈ 0.319 µM)
- MIC [17]: 0.25 µg/mL (≈ 0.639 µM)
- Survival [18]: 6.5 days
- MIC [19]: 0.25 µg/mL (≈ 0.639 µM)
- MIC [20]: 0.5 µg/mL (≈ 1.28 µM)
- MIC [21]: 0.25 µg/mL (≈ 0.639 µM)
- MIC [22]: 0.5 µg/mL (≈ 1.28 µM)
- MIC [23]: 0.25 µg/mL (≈ 0.639 µM)
- MIC [24]: 0.25 µg/mL (≈ 0.639 µM)
- MIC [25]: 0.25 µg/mL (≈ 0.639 µM)
- IC50 at 24 h [26]: 67.8 µg/mL (≈ 173 µM)
- MIC [27]: 0.5 µg/mL (≈ 1.28 µM)
- growth inhibition (GI) [28]: Active
- MIC [29]: 0.5 µg/mL (≈ 1.28 µM)
- MIC [30]: 0.25 µg/mL (≈ 0.639 µM)
- MIC [31]: 0.5 µg/mL (≈ 1.28 µM)
- MIC [32]: 0.031 µg/mL (≈ 0.0792 µM)
- MIC [33]: 0.125 µg/mL (≈ 0.319 µM)
- MIC [34]: 0.5 µg/mL (≈ 1.28 µM)
- MIC [35]: 0.5 µg/mL (≈ 1.28 µM)
- Survival [36]: 20%
- MIC [37]: 0.063 µg/mL (≈ 0.161 µM)
- MIC [38]: 1 µg/mL (≈ 2.55 µM)
- growth inhibition (GI) [39]: Active
- MIC [40]: 1 µg/mL
- MIC [41]: 0.25 µg/mL (≈ 0.639 µM)
- MIC [42]: 0.25 µg/mL (≈ 0.639 µM)
- growth inhibition (GI) [43]: Active
- MIC [44]: 0.125 µg/mL (≈ 0.319 µM)
- MIC [45]: 0.125 µg/mL (≈ 0.319 µM)
- MIC [46]: 0.125 µg/mL (≈ 0.319 µM)

Compound: Oc1c(I)cc(Cl)c2cccnc12 [CLIOQUINOL]
- MIC [6]: 0.25 µg/mL (≈ 0.818 µM)
- Activity [7]: 6.683 log10CFU/g
- growth inhibition (GI) [10]: Active
- Survival [18]: 5 days
- MIC [19]: 0.5 µg/mL (≈ 1.64 µM)
- growth inhibition (GI) [28]: Active
- MIC [32]: 0.031 µg/mL (≈ 0.101 µM)
- MIC [33]: 0.5 µg/mL (≈ 1.64 µM)
- MIC [37]: 0.125 µg/mL (≈ 0.409 µM)
- growth inhibition (GI) [39]: Active
- growth inhibition (GI) [43]: Active
- MIC [45]: 0.5 µg/mL (≈ 1.64 µM)

Compound: OC(Cn1cncn1)(Cn1cncn1)c1ccc(F)cc1F [FLUCONAZOLE]
- MIC [1]: > 64 µg/mL
- MIC [2]: > 64 µg/mL
- MIC [3]: > 64 µg/mL
- inhibition [4]: inactive
- MIC [5]: 32 µg/mL (≈ 104 µM)
- MIC [6]: > 64 µg/mL
- MIC [8]: 32 µg/mL (≈ 104 µM)
- MIC [9]: 16 µg/mL (≈ 52.2 µM)
- MIC [11]: > 64 µg/mL
- MIC [12]: 32 µg/mL (≈ 104 µM)
- MIC [13]: 32 µg/mL (≈ 104 µM)
- MIC [14]: > 64 µg/mL
- MIC [15]: 32 µg/mL (≈ 104 µM)
- MIC [16]: 16 µg/mL (≈ 52.2 µM)
- MIC [17]: 32 µg/mL (≈ 104 µM)
- MIC [19]: > 64 µg/mL
- MIC [20]: 32 µg/mL (≈ 104 µM)
- MIC [21]: > 64 µg/mL
- MIC [22]: > 64 µg/mL
- MIC [23]: > 64 µg/mL
- MIC [24]: > 64 µg/mL
- MIC [25]: > 64 µg/mL
- IC50 at 24 h [26]: 9.18 µg/mL (≈ 30 µM)
- MIC [27]: > 64 µg/mL
- MIC [29]: > 64 µg/mL
- MIC [30]: > 64 µg/mL
- MIC [31]: > 64 µg/mL
- MIC [32]: 4 µg/mL (≈ 13.1 µM)
- MIC [33]: > 64 µg/mL
- MIC [34]: > 64 µg/mL
- MIC [35]: > 64 µg/mL
- MIC [37]: 0.5 µg/mL (≈ 1.63 µM)
- MIC [38]: > 64 µg/mL
- MIC [41]: > 64 µg/mL
- MIC [42]: 32 µg/mL (≈ 104 µM)
- MIC [44]: 32 µg/mL (≈ 104 µM)
- MIC [45]: 0.5 µg/mL (≈ 1.63 µM)
- MIC [46]: 32 µg/mL (≈ 104 µM)

From ChEMBL document CHEMBL5375952, “Discovery of Novel 8-Hydroxyquinoline Derivatives with Potent In Vitro and In Vivo Antifungal Activity” (J Med Chem, 2023)
